Measured values from US20100267561A1, “HERBICIDAL PYRIDAZINONE DERIVATIVES” (priority 2007, published 2010).

What was measured:
Type in all cases: in vivo
corn (Zea mays) = assay: Test A pre-/postemergence plant response
Source text: (§1) Seeds of species selected from barnyardgrass (Echinochloa crus-galli), large crabgrass (Digitaria sanguinalis), giant foxtail (Setaria faberi), blackgrass (Alopecurus myosuroides), canarygrass (Phalaris minor), morningglory (Ipomoea coccinea), pigweed (Amaranthus retroflexus), velvetleaf (Abutilon theophrasti), wheat (Triticum aestivum), and corn (Zea mays) were planted into a blend of loam soil and sand and treated preemergence with a directed soil spray using test chemicals formulated in a non-phytotoxic solvent mixture which included a surfactant. At the same time these species were also treated with postemergence applications of test chemicals formulated in the same manner.
(§2) Plants ranged in height from 2 to 10 cm and were in the one- to two-leaf stage for the postemergence treatment. Treated plants and untreated controls were maintained in a greenhouse for approximately 10 days, after which time all treated plants were compared to untreated controls and visually evaluated for injury. Plant response ratings, summarized in Table A, are based on a 0 to 100 scale where 0 is no effect and 100 is complete control. A dash (-) response means no test results.

[1] = test system: giant foxtail (Setaria faberi); assay: Test A pre-/postemergence plant response
Source text: as §1, §2

[2] = test system: velvetleaf (Abutilon theophrasti); assay: Test A pre-/postemergence plant response
Source text: as §1, §2

[3] = test system: wheat (Triticum aestivum); assay: Test A pre-/postemergence plant response
Source text: as §1, §2

[4] = test system: pigweed (Amaranthus retroflexus); assay: Test A pre-/postemergence plant response
Source text: as §1, §2

[5] = test system: morningglory (Ipomoea coccinea); assay: Test A pre-/postemergence plant response
Source text: as §1, §2

[6] = test system: barnyardgrass (Echinochloa crus-galli); assay: Test A pre-/postemergence plant response
Source text: as §1, §2

[7] = test system: large crabgrass (Digitaria sanguinalis); assay: Test A pre-/postemergence plant response
Source text: as §1, §2

[8] = test system: umbrella sedge (Cyperus difformis); assay: Test B flooded paddy test plant response
Source text: (§3) Plant species in the flooded paddy test consisted of rice (Oryza sativa), umbrella sedge (Cyperus difformis), ducksalad (Heteranthera limosa) and barnyardgrass (Echinochloa crus-galli) grown to the 2-leaf stage for testing. At time of treatment, test pots were flooded to 3 cm above the soil surface, treated by application of test compounds directly to the paddy water, and then maintained at that water depth for the duration of the test. Treated plants and controls were maintained in a greenhouse for 13 to 15 days, after which time all species were compared to controls and visually evaluated. Plant response ratings, summarized in Table B, are based on a scale of 0 to 100 where 0 is no effect and 100 is complete control. A dash (-) response means no test result.

[9] = test system: ducksalad (Heteranthera limosa); assay: Test B flooded paddy test plant response
Source text: as §3

rice (Oryza sativa) = assay: Test B flooded paddy test plant response
Source text: as §3

[10] = test system: barnyardgrass (Echinochloa crus-galli); assay: Test B flooded paddy test plant response
Source text: as §3

[11] = Postemergence, 125 g ai/ha, 0 to 100 scale, 0 no effect, 100 complete control
[12] = Postemergence, 500 g ai/ha, 0 to 100 scale, 0 no effect, 100 complete control
[13] = Preemergence, 125 g ai/ha, 0 to 100 scale (0 no effect, 100 complete control)
[14] = Preemergence, 500 g ai/ha, 0 to 100 scale (0 no effect, 100 complete control)
[15] = Flood (flooded paddy test), 62 g ai/ha, scale 0 to 100, 0 no effect, 100 complete control
[16] = Flood (flooded paddy test), 250 g ai/ha, scale 0 to 100, 0 no effect, 100 complete control
[17] = Flood, 31 g ai/ha, scale 0 to 100
[18] = Flood (flooded paddy test), 125 g ai/ha, scale 0 to 100, 0 no effect, 100 complete control

Structure (SMILES): CSc1cc(-c2ccc(F)cc2)nn1-c1c(O)cnn(C)c1=O [Compound 23]
- Plant response rating, Corn (corn (Zea mays); [11]): 0
- Plant response rating, Corn (corn (Zea mays); [12]): 20
- Plant response rating, Corn (corn (Zea mays); [13]): 0
- Plant response rating, Corn (corn (Zea mays); [14]): 20
- Plant response rating, Foxtail, Giant [1, 11]: 20
- Plant response rating, Foxtail, Giant [1, 12]: 80
- Plant response rating, Foxtail, Giant [1, 13]: 20
- Plant response rating, Foxtail, Giant [1, 14]: 70
- Plant response rating, Velvetleaf [2, 11]: 0
- Plant response rating, Velvetleaf [2, 12]: 0
- Plant response rating, Velvetleaf [2, 13]: 0
- Plant response rating, Velvetleaf [2, 14]: 0
- Plant response rating, Wheat [3, 11]: 0
- Plant response rating, Wheat [3, 12]: 0
- Plant response rating, Wheat [3, 13]: 0
- Plant response rating, Wheat [3, 14]: 0
- Plant response rating, Pigweed [4, 11]: 0
- Plant response rating, Pigweed [4, 12]: 0
- Plant response rating, Pigweed [4, 13]: 0
- Plant response rating, Pigweed [4, 14]: 0
- Plant response rating, Morningglory [5, 11]: 0
- Plant response rating, Morningglory [5, 12]: 0
- Plant response rating, Morningglory [5, 13]: 0
- Plant response rating, Morningglory [5, 14]: 0
- Plant response rating, Barnyardgrass [6, 11]: 0
- Plant response rating, Barnyardgrass [6, 12]: 70
- Plant response rating, Barnyardgrass [6, 13]: 0
- Plant response rating, Barnyardgrass [6, 14]: 10
- Plant response rating, Crabgrass, Large [7, 11]: 0
- Plant response rating, Crabgrass, Large [7, 12]: 20
- Plant response rating, Crabgrass, Large [7, 13]: 0
- Plant response rating, Crabgrass, Large [7, 14]: 0

Structure (SMILES): Cc1cc(-c2ccc(OC(F)(F)F)cc2)nn1-c1c(O)cnn(C)c1=O [Compound 14]
- Plant response rating, Sedge, Umbrella [8, 15]: 60
- Plant response rating, Sedge, Umbrella [8, 16]: 60
- Plant response rating, Sedge, Umbrella [8, 17]: 0
- Plant response rating, Ducksalad [9, 15]: 0
- Plant response rating, Ducksalad [9, 18]: 40
- Plant response rating, Ducksalad [9, 16]: 40
- Plant response rating, Ducksalad [9, 17]: 0
- Plant response rating, Rice (rice (Oryza sativa); [15]): 0
- Plant response rating, Rice (rice (Oryza sativa); [18]): 0
- Plant response rating, Rice (rice (Oryza sativa); [16]): 20
- Plant response rating, Rice (rice (Oryza sativa); [17]): 0
- Plant response rating, Barnyardgrass [10, 15]: 0
- Plant response rating, Barnyardgrass [10, 18]: 20
- Plant response rating, Barnyardgrass [10, 16]: 20
- Plant response rating, Barnyardgrass [10, 17]: 0
- Plant response rating, Corn (corn (Zea mays); [11]): 40
- Plant response rating, Corn (corn (Zea mays); [12]): 80
- Plant response rating, Corn (corn (Zea mays); [13]): 0
- Plant response rating, Corn (corn (Zea mays); [14]): 60
- Plant response rating, Foxtail, Giant [1, 11]: 80
- Plant response rating, Foxtail, Giant [1, 12]: 100
- Plant response rating, Foxtail, Giant [1, 13]: 80
- Plant response rating, Foxtail, Giant [1, 14]: 100
- Plant response rating, Velvetleaf [2, 11]: 0
- Plant response rating, Velvetleaf [2, 12]: 30
- Plant response rating, Velvetleaf [2, 13]: 0
- Plant response rating, Velvetleaf [2, 14]: 20
- Plant response rating, Wheat [3, 11]: 40
- Plant response rating, Wheat [3, 12]: 70
- Plant response rating, Wheat [3, 13]: 10
- Plant response rating, Wheat [3, 14]: 80
- Plant response rating, Pigweed [4, 11]: 0
- Plant response rating, Pigweed [4, 12]: 0
- Plant response rating, Pigweed [4, 13]: 0
- Plant response rating, Pigweed [4, 14]: 0
- Plant response rating, Morningglory [5, 11]: 0
- Plant response rating, Morningglory [5, 12]: 0
- Plant response rating, Morningglory [5, 13]: 0
- Plant response rating, Morningglory [5, 14]: 0
- Plant response rating, Barnyardgrass [6, 11]: 70
- Plant response rating, Barnyardgrass [6, 12]: 100
- Plant response rating, Barnyardgrass [6, 13]: 70
- Plant response rating, Barnyardgrass [6, 14]: 100
- Plant response rating, Crabgrass, Large [7, 11]: 60
- Plant response rating, Crabgrass, Large [7, 12]: 90
- Plant response rating, Crabgrass, Large [7, 13]: 70
- Plant response rating, Crabgrass, Large [7, 14]: 90
